Reference: US6461997B1, “Triazole sulfones having herbicidal activity” (Monsanto Technology LLC, priority 1999, dated 2002)

Columns and labels:
[1] = test system: AGRRE (quackgrass (seedling)); test: Pre-plant incorporated (PPI) herbicidal activity, cool season; assay type: in vivo, Elymus repens
Procedure, shortened: (§1)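 Seeds sown on compacted topsoil were covered with soil into which test compound (organic solvent solution/suspension) had been sprayed and mixed; untreated cover soil for controls. Greenhouse, 0.64 cm overhead irrigation; warm season 30/21° C, cool season 18/13° C day/night. Percent inhibition versus untreated scored ~14 days after treatment.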

[2] = test system: AMARE (redroot pigweed); test: Pre-emergence herbicidal activity, warm season; assay type: in vivo, Amaranthus retroflexus; conditions: GR80 = lowest tested rate (300, 100, 30, 10 g/ha) with 80% or greater inhibition; approx. 14 days after treating; 30/21° C.
Procedure, shortened: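 Seeds sown in sterilised fertilised topsoil received surface-applied compound in 50:50 acetone/water, typically at 300, 100, 30 and 10 g/ha, then greenhouse-grown at 30/21° C (warm-season species) or 18/13° C (cool-season species). Percent inhibition versus untreated plants was scored at about 14 days, giving GR80; an asterisk marks activity short of 80% at the top rate.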

[3] = test system: CHEAL (common lambsquarters); test: Pre-plant incorporated (PPI) herbicidal activity, warm season; assay type: in vivo, Chenopodium album
Procedure, shortened: as §1

[4] = test system: SETFA (giant foxtail); test: as above; assay type: in vivo, Setaria faberi
Procedure, shortened: as §1

[5] = test system: SINAR (wild mustard); test: Pre-plant incorporated (PPI) herbicidal activity, cool season; assay type: in vivo, Sinapis arvensis
Procedure, shortened: as §1

[6] = test system: wheat (TRZAW); test: Selectivity test, PPI, cool season crop; assay type: in vivo, Triticum aestivum; conditions: PPI application
Procedure, shortened: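 Pre-plant incorporated: compound in organic solvent sprayed onto cover soil, mixed and laid over seeds; untreated soil for controls. Greenhouse after treatment: warm season 30/21° C., cool season 18/13° C. day/night. Percent inhibition versus untreated plants scored about 14 days after planting.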

[7] = test system: DIGSA (large crabgrass); test: Pre-emergence herbicidal activity, warm season; assay type: in vivo, Digitaria sanguinalis; conditions: GR80 = lowest tested rate (300, 100, 30, 10 g/ha) with 80% or greater inhibition; approx. 14 days after treating; 30/21° C.
Procedure, shortened: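 Each pot received seeds on sterilized fertilized topsoil, a soil cover, and a surface spray of compound (300–10 g/ha, acetone/water 50:50). Plants grew about 14 days at 30/21 °C (PANMI, DIGSA) or 18/13 °C (ALOMY, POLCO) before inhibition was rated against untreated pots to give GR80.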

[8] = test system: BRAPP (broadleaf signalgrass); test: Pre-plant incorporated (PPI) herbicidal activity, warm season; assay type: in vivo, Brachiaria platyphylla
Procedure, shortened: as §1

[9] = test system: SORVU (shattercane); test: Pre-emergence herbicidal activity, warm season; assay type: in vivo, Sorghum vulgare; conditions: GR80 = lowest tested rate (300, 100, 30, 10 g/ha) with 80% or greater inhibition; approx. 14 days after treating; 30/21° C.
Procedure, shortened: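 Activity is expressed as the rate giving 80% inhibition, with 300, 100, 30 and 10 g/ha typically tested. An asterisk marks activity short of 80% at the top rate. Warm-season grasses were held at 30/21 °C; cool-season blackgrass and wild buckwheat at 18/13 °C; scoring at about 14 days.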

[10] = test system: PANMI (wild proso millet); test: Pre-plant incorporated (PPI) herbicidal activity, warm season; assay type: in vivo, Panicum miliaceum
Procedure, shortened: as §1

[11] = weed, PPI application, 100 g/ha
[12] = weed, PPI application, 300 g/ha
[13] = weed, PPI application, 900 g/ha
[14] = pre-plant incorporated, lowest tested rate with 80% or greater inhibition, about 14 days

Q: What does the source list for `CCN(CC)C(=O)n1cnc(S(=O)(=O)C(F)(F)Cl)n1` [Example 3]?
A: Percent inhibition AGRRE ([1]; weed, PPI application, 30 g/ha): 20%; Percent inhibition AGRRE [1, 11]: 50%; Percent inhibition AGRRE [1, 12]: 80%; Percent inhibition AGRRE [1, 13]: 95%; Pre-emergence activity (GR80) AMARE [2]: 100 g/ha; Percent inhibition CHEAL ([3]; PPI application, 30 g/ha): 80%; Percent inhibition CHEAL ([3]; PPI application, 100 g/ha): 99%; Percent inhibition CHEAL ([3]; PPI application, 300 g/ha): 100%; Percent inhibition CHEAL ([3]; PPI application, 900 g/ha): 100%; Percent inhibition SETFA ([4]; PPI application, 30 g/ha): 100%; Percent inhibition SETFA ([4]; PPI application, 100 g/ha): 100%; Percent inhibition SETFA ([4]; PPI application, 300 g/ha): 100%; Percent inhibition SETFA ([4]; PPI application, 900 g/ha): 100%; Percent inhibition SINAR ([5]; weed, PPI application, 30 g/ha): 100%; Percent inhibition SINAR [5, 11]: 100%; Percent inhibition SINAR [5, 12]: 100%; Percent inhibition SINAR [5, 13]: 100%; Percent inhibition TRZAW ([6]; 30 g/ha): 0%; Percent inhibition TRZAW ([6]; 100 g/ha): 0%; Percent inhibition TRZAW ([6]; 300 g/ha): 20%; Percent inhibition TRZAW ([6]; 900 g/ha): 40%; Pre-emergence activity (GR80) DIGSA [7]: 100 g/ha; Percent inhibition BRAPP ([8]; PPI application, 30 g/ha): 30%; Percent inhibition BRAPP ([8]; PPI application, 100 g/ha): 100%; Percent inhibition BRAPP ([8]; PPI application, 300 g/ha): 100%; Percent inhibition BRAPP ([8]; PPI application, 900 g/ha): 90%; Pre-emergence activity (GR80) SORVU [9]: 100 g/ha; Percent inhibition PANMI ([10]; PPI application, 30 g/ha): 100%; Percent inhibition PANMI ([10]; PPI application, 100 g/ha): 100%; Percent inhibition PANMI ([10]; PPI application, 300 g/ha): 100%; Percent inhibition PANMI ([10]; PPI application, 900 g/ha): 100%

Q: What does the source list for `CCN(CC)C(=O)n1cnc(S(=O)(=O)C(F)(F)C(F)(F)Br)n1` [Example 4]?
A: Percent inhibition AGRRE ([1]; weed, PPI application, 30 g/ha): 50%; Percent inhibition AGRRE [1, 11]: 70%; Percent inhibition AGRRE [1, 12]: 80%; Percent inhibition AGRRE [1, 13]: 90%; Pre-emergence activity (GR80) AMARE [2]: 100 g/ha; Percent inhibition CHEAL ([3]; PPI application, 30 g/ha): 60%; Percent inhibition CHEAL ([3]; PPI application, 100 g/ha): 100%; Percent inhibition CHEAL ([3]; PPI application, 300 g/ha): 100%; Percent inhibition CHEAL ([3]; PPI application, 900 g/ha): 100%; Percent inhibition SETFA ([4]; PPI application, 30 g/ha): 100%; Percent inhibition SETFA ([4]; PPI application, 100 g/ha): 100%; Percent inhibition SETFA ([4]; PPI application, 300 g/ha): 100%; Percent inhibition SETFA ([4]; PPI application, 900 g/ha): 100%; Percent inhibition SINAR ([5]; weed, PPI application, 30 g/ha): 95%; Percent inhibition SINAR [5, 11]: 100%; Percent inhibition SINAR [5, 12]: 100%; Percent inhibition SINAR [5, 13]: 100%; Percent inhibition TRZAW ([6]; 30 g/ha): 0%; Percent inhibition TRZAW ([6]; 100 g/ha): 10%; Percent inhibition TRZAW ([6]; 300 g/ha): 30%; Percent inhibition TRZAW ([6]; 900 g/ha): 45%; Pre-emergence activity (GR80) DIGSA [7]: 100 g/ha; Percent inhibition BRAPP ([8]; PPI application, 30 g/ha): 0%; Percent inhibition BRAPP ([8]; PPI application, 100 g/ha): 60%; Percent inhibition BRAPP ([8]; PPI application, 300 g/ha): 100%; Percent inhibition BRAPP ([8]; PPI application, 900 g/ha): 100%; Pre-emergence activity (GR80) SORVU [9]: * (activity observed, at least at highest rate, but <80% inhibition); Percent inhibition PANMI ([10]; PPI application, 30 g/ha): 0%; Percent inhibition PANMI ([10]; PPI application, 100 g/ha): 100%; Percent inhibition PANMI ([10]; PPI application, 300 g/ha): 100%; Percent inhibition PANMI ([10]; PPI application, 900 g/ha): 100%

Q: Which results are given for `CCSC(F)(F)S(=O)(=O)c1ncn(C(=O)N(CC)CC)n1` [Example 8, 1-(N,N-diethylcarbamoyl)-3-[difluoro(ethylthio)methylsulfonyl]-1,2,4-triazole]?
A: inhibition at 30 g/ha ([1]; Elymus repens, weed, PPI application, 30 g/ha, read-out: Percent inhibition AGRRE): 0%; inhibition at 100 g/ha ([1]; Elymus repens, weed, PPI application, 100 g/ha, read-out: Percent inhibition AGRRE): 40%; inhibition at 300 g/ha ([1]; Elymus repens, weed, PPI application, 300 g/ha, read-out: Percent inhibition AGRRE): 70%; inhibition at 900 g/ha ([1]; Elymus repens, weed, PPI application, 900 g/ha, read-out: Percent inhibition AGRRE): 100%; PPI activity GR80, AGRRE [1, 14]: 300 g/ha; Pre-emergence activity (GR80) AMARE [2]: 100 g/ha; inhibition at 30 g/ha ([3]; Chenopodium album, PPI application, 30 g/ha, read-out: Percent inhibition CHEAL): 70%; inhibition at 100 g/ha ([3]; Chenopodium album, PPI application, 100 g/ha, read-out: Percent inhibition CHEAL): 100%; inhibition at 300 g/ha ([3]; Chenopodium album, PPI application, 300 g/ha, read-out: Percent inhibition CHEAL): 100%; inhibition at 900 g/ha ([3]; Chenopodium album, PPI application, 900 g/ha, read-out: Percent inhibition CHEAL): 100%; PPI activity (GR80) CHEAL ([3]; pre-plant incorporated, GR80 = lowest tested rate with 80% or greater inhibition, approx. 14 days after treating, 30/21° C.): 30 g/ha; inhibition at 30 g/ha ([4]; Setaria faberi, PPI application, 30 g/ha, read-out: Percent inhibition SETFA): 90%; inhibition at 100 g/ha ([4]; Setaria faberi, PPI application, 100 g/ha, read-out: Percent inhibition SETFA): 100%; inhibition at 300 g/ha ([4]; Setaria faberi, PPI application, 300 g/ha, read-out: Percent inhibition SETFA): 100%; inhibition at 900 g/ha ([4]; Setaria faberi, PPI application, 900 g/ha, read-out: Percent inhibition SETFA): 100%; PPI activity GR80, SETFA [4, 14]: 30 g/ha; inhibition at 30 g/ha ([5]; Brassica, weed, PPI application, 30 g/ha, read-out: Percent inhibition SINAR): 100%; inhibition at 100 g/ha ([5]; Brassica, weed, PPI application, 100 g/ha, read-out: Percent inhibition SINAR): 95%; inhibition at 300 g/ha ([5]; Brassica, weed, PPI application, 300 g/ha, read-out: Percent inhibition SINAR): 100%; inhibition at 900 g/ha ([5]; Brassica, weed, PPI application, 900 g/ha, read-out: Percent inhibition SINAR): 80%; PPI activity GR80, SINAR [5, 14]: 100 g/ha; inhibition at 30 g/ha ([6]; Triticum aestivum, 30 g/ha, read-out: Percent inhibition TRZAW): 0%; inhibition at 100 g/ha ([6]; Triticum aestivum, 100 g/ha, read-out: Percent inhibition TRZAW): 0%; inhibition at 300 g/ha ([6]; Triticum aestivum, 300 g/ha, read-out: Percent inhibition TRZAW): 20%; inhibition at 900 g/ha ([6]; Triticum aestivum, 900 g/ha, read-out: Percent inhibition TRZAW): 60%; Pre-emergence activity (GR80) DIGSA [7]: 100 g/ha; inhibition at 30 g/ha ([8]; Urochloa platyphylla, PPI application, 30 g/ha, read-out: Percent inhibition BRAPP): 40%; inhibition at 100 g/ha ([8]; Urochloa platyphylla, PPI application, 100 g/ha, read-out: Percent inhibition BRAPP): 70%; inhibition at 300 g/ha ([8]; Urochloa platyphylla, PPI application, 300 g/ha, read-out: Percent inhibition BRAPP): 100%; inhibition at 900 g/ha ([8]; Urochloa platyphylla, PPI application, 900 g/ha, read-out: Percent inhibition BRAPP): 100%; PPI activity GR80, BRAPP [8, 14]: 30 g/ha; Pre-emergence activity (GR80) SORVU [9]: 100 g/ha; inhibition at 30 g/ha ([10]; Panicum miliaceum, PPI application, 30 g/ha, read-out: Percent inhibition PANMI): 100%; inhibition at 100 g/ha ([10]; Panicum miliaceum, PPI application, 100 g/ha, read-out: Percent inhibition PANMI): 100%; inhibition at 300 g/ha ([10]; Panicum miliaceum, PPI application, 300 g/ha, read-out: Percent inhibition PANMI): 100%; inhibition at 900 g/ha ([10]; Panicum miliaceum, PPI application, 900 g/ha, read-out: Percent inhibition PANMI): 100%; PPI activity GR80, PANMI [10, 14]: 10 g/ha
